Experimental data: patent publication US7834042B2, “Angiotensin II receptor antagonists” (Merck Sharp & Dohme Corp., priority 2006, dated 2010)

Experiment: Reactive nitrogen species (RNS) after oral dosing of fasted rats, diaminonapthalene derivitization (DAN) assay
Format: in vivo, Sprague-Dawley (SD) rats
Details: fasted SD rats, 40 mpk PO
Protocol: The dinitrate compounds of the invention provide enhanced NO release over mononitrate analogs. While mononitrate compounds orally dosed to rats result in reactive nitrite species circulating in plasma with maximal concentration in the 0.5-2.8 μM range, similar dosing of compounds of the present invention result in an unexpectedly large increase in circulating nitrite concentrations. A consideration of stoichiometry leads to an expectation of a doubling of nitrite levels. Compounds of the invention, however, provide a nitrite level increase more than two fold.
Biochemical evidence for the generation of NO in vivo in response to test compound administration was obtained from studies in Sprague-Dawley (SD) rats. Administration of test compound to fasted SD rats (40 mpk, PO) results in the appearance of reactive nitrogen species (RNS), assessed using the diaminonapthalene derivitization (DAN) assay. Compounds 1-2 as numbered and identified in Table 1 below were tested.

Question: What does the source list for `CCCCc1nc(Cl)c(COC(=O)CCCO[N+](=O)[O-])n1Cc1ccc(-c2ccccc2-c2nnn[nH]2)cc1` [Compound 1, reference compound]?
Answer: RNS levels (Time 0 h, in µM): 0.7 ± 0.12; RNS levels (Time 1 h, in µM): 1.1 ± 0.22; RNS levels (Time 3 h, in µM): 1.1 ± 0.26; RNS levels (Time 6 h, in µM): 1.1 ± 0.34; RNS levels (Time 24 h, in µM): 1.7 ± 0.15

Question: What does the source list for `CCCCc1nc(Cl)c(COC(=O)CCC[C@@H](CO[N+](=O)[O-])O[N+](=O)[O-])n1Cc1ccc(-c2ccccc2-c2nnn[nH]2)cc1` [Compound 2]?
Answer: RNS levels (result in words) (Compounds 1-2 compared): improved RNS levels; RNS levels (Time 0 h): 0.6 ± 0.11; RNS levels (Time 1 h): 9.8 ± 3.8; RNS levels (Time 3 h): 3.1 ± 2.48; RNS levels (Time 6 h): 2.1 ± 1.65; RNS levels (Time 24 h, in µM): 0.5 ± 0.26
